Test results taken from ChEMBL document CHEMBL4152291, “Synthesis and biological activities of dithiocarbamates containing 2(5H)-furanone-piperazine” (Eur J Med Chem, 2018).

Tests used:
[1] = tested on: SMMC-7721; test: Induction of apoptosis in human SMMC7721 cells assessed as necrotic cells at 5 ug/ml after 72 hrs by Annexin-V-FITC/propidium iodide staining based flow cytometry (reference value: 0.39 to 0.5%); assay type: functional
[2] = tested on: HeLa; test: Growth inhibition of human HeLa cells at 12.5 ug/ml after 72 hrs by MTT assay relative to control; assay type: functional; settings: read-out: GI
[3] = tested on: HeLa; test: Growth inhibition of human HeLa cells at 6.25 ug/ml after 72 hrs by MTT assay relative to control; assay type: functional; settings: read-out: GI
[4] = tested on: SMMC-7721; test: Induction of apoptosis in human SMMC7721 cells assessed as early apoptotic cells at 0.5 ug/ml after 72 hrs by Annexin-V-FITC/propidium iodide staining based flow cytometry (reference value: 2.61 to 3.3%); assay type: functional
[5] = tested on: SMMC-7721; test: Induction of apoptosis in human SMMC7721 cells assessed as live cells at 0.5 ug/ml after 72 hrs by Annexin-V-FITC/propidium iodide staining based flow cytometry (reference value: 92.87 to 93.39%); assay type: functional
[6] = tested on: SMMC-7721; test: Induction of apoptosis in human SMMC7721 cells assessed as live cells at 5 ug/ml after 72 hrs by Annexin-V-FITC/propidium iodide staining based flow cytometry (reference value: 92.87 to 93.39%); assay type: functional
[7] = tested on: SMMC-7721; test: Growth inhibition of human SMMC7721 cells at 5 ug/ml after 72 hrs by MTT assay relative to control; assay type: functional; settings: SMMC-7721, 72 h, read-out: GI
[8] = tested on: SMMC-7721; test: Induction of apoptosis in human SMMC7721 cells assessed as late apoptotic cells at 0.5 ug/ml after 72 hrs by Annexin-V-FITC/propidium iodide staining based flow cytometry (reference value: 3.34 to 3.62%); assay type: functional
[9] = tested on: SMMC-7721; test: Induction of apoptosis in human SMMC7721 cells assessed as increase in late apoptotic cells after 72 hrs by Annexin-V-FITC/propidium iodide staining based flow cytometry; assay type: functional, cell-based
[10] = tested on: SMMC-7721; test: Induction of apoptosis in human SMMC7721 cells assessed as increase in early apoptotic cells after 72 hrs by Annexin-V-FITC/propidium iodide staining based flow cytometry; assay type: functional, cell-based
[11] = tested on: HeLa; test: Growth inhibition of human HeLa cells at 25 ug/ml after 72 hrs by MTT assay relative to control; assay type: functional; settings: read-out: GI
[12] = tested on: SMMC-7721; test: Growth inhibition of human SMMC7721 cells at 0.5 ug/ml after 72 hrs by MTT assay relative to control; assay type: functional; settings: SMMC-7721, 72 h, read-out: GI
[13] = tested on: SMMC-7721; test: Induction of apoptosis in human SMMC7721 cells assessed as necrotic cells at 0.1 ug/ml after 72 hrs by Annexin-V-FITC/propidium iodide staining based flow cytometry (reference value: 0.39 to 0.5%); assay type: functional
[14] = Growth inhibition of human LO2 cells at 2.5 ug/ml after 72 hrs by MTT assay relative to control; assay type: cell-based, L02; settings: read-out: GI
[15] = tested on: HeLa; test: Growth inhibition of human HeLa cells at 100 ug/ml after 72 hrs by MTT assay relative to control; assay type: functional; settings: read-out: GI
[16] = Growth inhibition of human LO2 cells at 0.5 ug/ml after 72 hrs by MTT assay relative to control; assay type: cell-based, L02; settings: read-out: GI
[17] = tested on: HeLa; test: Growth inhibition of human HeLa cells at 50 ug/ml after 72 hrs by MTT assay relative to control; assay type: functional; settings: read-out: GI
[18] = tested on: SMMC-7721; test: Growth inhibition of human SMMC7721 cells at 0.01 ug/ml after 72 hrs by MTT assay relative to control; assay type: functional; settings: SMMC-7721, 72 h, read-out: GI
[19] = tested on: HeLa; test: Cytotoxicity against human HeLa cells assessed as inhibition of cell proliferation after 72 hrs by MTT assay; assay type: functional, cell-based
[20] = tested on: SMMC-7721; test: Growth inhibition of human SMMC7721 cells at 0.1 ug/ml after 72 hrs by MTT assay relative to control; assay type: functional; settings: SMMC-7721, 72 h, read-out: GI
[21] = tested on: SMMC-7721; test: Induction of apoptosis in human SMMC7721 cells assessed as early apoptotic cells at 0.1 ug/ml after 72 hrs by Annexin-V-FITC/propidium iodide staining based flow cytometry (reference value: 2.61 to 3.3%); assay type: functional
[22] = Growth inhibition of human LO2 cells at 5 ug/ml after 72 hrs by MTT assay relative to control; assay type: cell-based, L02; settings: read-out: GI
[23] = tested on: SMMC-7721; test: Induction of apoptosis in human SMMC7721 cells assessed as necrotic cells at 0.5 ug/ml after 72 hrs by Annexin-V-FITC/propidium iodide staining based flow cytometry (reference value: 0.39 to 0.5%); assay type: functional
[24] = tested on: SMMC-7721; test: Induction of apoptosis in human SMMC7721 cells assessed as early apoptotic cells at 5 ug/ml after 72 hrs by Annexin-V-FITC/propidium iodide staining based flow cytometry (reference value: 2.61 to 3.3%); assay type: functional
[25] = tested on: SMMC-7721; test: Induction of apoptosis in human SMMC7721 cells assessed as live cells at 0.1 ug/ml after 72 hrs by Annexin-V-FITC/propidium iodide staining based flow cytometry (reference value: 92.87 to 93.39%); assay type: functional
[26] = tested on: SMMC-7721; test: Growth inhibition of human SMMC7721 cells at 2.5 ug/ml after 72 hrs by MTT assay relative to control; assay type: functional; settings: SMMC-7721, 72 h, read-out: GI
[27] = Growth inhibition of human LO2 cells at 0.01 ug/ml after 72 hrs by MTT assay relative to control; assay type: cell-based, L02; settings: read-out: GI
[28] = tested on: SMMC-7721; test: Induction of apoptosis in human SMMC7721 cells assessed as late apoptotic cells at 0.1 ug/ml after 72 hrs by Annexin-V-FITC/propidium iodide staining based flow cytometry (reference value: 3.34 to 3.62%); assay type: functional
[29] = Growth inhibition of human LO2 cells at 0.1 ug/ml after 72 hrs by MTT assay relative to control; assay type: cell-based, L02; settings: read-out: GI
[30] = tested on: SMMC-7721; test: Induction of apoptosis in human SMMC7721 cells assessed as late apoptotic cells at 5 ug/ml after 72 hrs by Annexin-V-FITC/propidium iodide staining based flow cytometry (reference value: 3.34 to 3.62%); assay type: functional
[31] = tested on: L02; test: Cytotoxicity against human LO2 cells assessed as inhibition of cell proliferation after 72 hrs by MTT assay; assay type: cell-based; settings: L02, 72 h
[32] = tested on: HeLa; test: Cytotoxicity against human HeLa cells; assay type: functional, cell-based

## CC(C)[C@@H]1CC[C@@H](C)C[C@H]1O[C@H]1OC(=O)C(Br)=C1N1CCN(C(=S)SCc2ccccc2)CC1
[1]
  Activity: 7.72 - 9.59%
[2]
  inhibition of growth at 12.5 µg/mL: 37.5%
[3]
  inhibition of growth at 6.25 µg/mL: 32%
[4]
  Activity: 4.01 - 5.07%
[5]
  Activity: 81.84 - 83.6%
[6]
  Activity: 64.53 - 65.54%
[7]
  inhibition of growth at 5 µg/mL: 75%
[8]
  Activity: 8.98 - 11.36%
[9]
  Activity: Dose-dependent effect
[10]
  Activity: Dose-dependent effect
[11]
  inhibition of growth at 25 µg/mL: 43.5%
[12]
  inhibition of growth at 0.5 µg/mL: 20.9%
[13]
  Activity: 1.29 - 4.56%
[14]
  inhibition at 72 h, 2.5 ug/ml: 15.6%
[15]
  inhibition of growth at 100 µg/mL: 45%
[16]
  inhibition at 72 h, 0.5 ug/ml: 15%
[17]
  inhibition of growth at 50 µg/mL: 46.4%
[18]
  inhibition of growth at 0.01 µg/mL: 9.09%
[19]
  Activity: Dose-dependent effect
  IC50: 260 nM
[20]
  inhibition of growth at 0.1 µg/mL: 17%
[21]
  Activity: 2.75 - 3.41%
[22]
  inhibition at 72 h, 5 ug/ml: 25.8%
[23]
  Activity: 2.17 - 4.01%
[24]
  Activity: 6.06 - 6.14%
[25]
  Activity: 85.91 - 89.74%
[26]
  inhibition of growth at 2.5 µg/mL: 39.2%
[27]
  inhibition at 72 h, 0.01 ug/ml: -3.31%
[28]
  Activity: 5.56 - 7.39%
[29]
  inhibition at 72 h, 0.1 ug/ml: 7.48%
[30]
  Activity: 18.99 - 20.66%

## COC(=O)CSC(=S)N1CCN(C2=C(Br)C(=O)O[C@@H]2O[C@@H]2C[C@H](C)CC[C@H]2C(C)C)CC1
[2]
  inhibition of growth at 12.5 µg/mL: 10.9%
[3]
  inhibition of growth at 6.25 µg/mL: 8.57%
[7]
  inhibition of growth at 5 µg/mL: 64.5%
[11]
  inhibition of growth at 25 µg/mL: 11.3%
[12]
  inhibition of growth at 0.5 µg/mL: 21.4%
[14]
  inhibition at 72 h, 2.5 ug/ml: 15%
[15]
  inhibition of growth at 100 µg/mL: 36.9%
[16]
  inhibition at 72 h, 0.5 ug/ml: 11.1%
[17]
  inhibition of growth at 50 µg/mL: 35.3%
[18]
  inhibition of growth at 0.01 µg/mL: 4.41%
[19]
  Activity: Dose-dependent effect
  IC50: 320 nM
[20]
  inhibition of growth at 0.1 µg/mL: 9.68%
[22]
  inhibition at 72 h, 5 ug/ml: 26.6%
[26]
  inhibition of growth at 2.5 µg/mL: 40.1%
[27]
  inhibition at 72 h, 0.01 ug/ml: 0.87%
[29]
  inhibition at 72 h, 0.1 ug/ml: 6.98%

## C=CCSC(=S)N1CCN(C2=C(Br)C(=O)O[C@@H]2O[C@@H]2C[C@H](C)CC[C@H]2C(C)C)CC1
[2]
  inhibition of growth at 12.5 µg/mL: 44.5%
[3]
  inhibition of growth at 6.25 µg/mL: 45.6%
[7]
  inhibition of growth at 5 µg/mL: 67.4%
[11]
  inhibition of growth at 25 µg/mL: 41.7%
[31]
  IC50: 45800 nM
[12]
  inhibition of growth at 0.5 µg/mL: 21%
[14]
  inhibition at 72 h, 2.5 ug/ml: 11.2%
[15]
  inhibition of growth at 100 µg/mL: 57.4%
[16]
  inhibition at 72 h, 0.5 ug/ml: 9.79%
[17]
  inhibition of growth at 50 µg/mL: 53.8%
[18]
  inhibition of growth at 0.01 µg/mL: 7.87%
[19]
  Activity: Dose-dependent effect
  IC50: 60 nM
[20]
  inhibition of growth at 0.1 µg/mL: 17%
[22]
  inhibition at 72 h, 5 ug/ml: 12.9%
[26]
  inhibition of growth at 2.5 µg/mL: 40.7%
[27]
  inhibition at 72 h, 0.01 ug/ml: -1.9%
[29]
  inhibition at 72 h, 0.1 ug/ml: 5.21%

## CC[C@]1(O)C[C@H]2CN(CCc3c([nH]c4ccccc34)[C@@](C(=O)OC)(c3cc4c(cc3OC)N(C=O)[C@H]3[C@@](O)(C(=O)OC)[C@H](OC(C)=O)[C@]5(CC)C=CCN6CC[C@]43[C@@H]65)C2)C1 [VINCRISTINE]
[7]
  inhibition of growth at 5 µg/mL: 68.5%
[12]
  inhibition of growth at 0.5 µg/mL: 23.9%
[14]
  inhibition at 72 h, 2.5 ug/ml: 11.5%
[16]
  inhibition at 72 h, 0.5 ug/ml: 7.26%
[18]
  inhibition of growth at 0.01 µg/mL: 12.3%
[20]
  inhibition of growth at 0.1 µg/mL: 17.7%
[22]
  inhibition at 72 h, 5 ug/ml: 16.5%
[26]
  inhibition of growth at 2.5 µg/mL: 45.7%
[27]
  inhibition at 72 h, 0.01 ug/ml: 1.6%
[29]
  inhibition at 72 h, 0.1 ug/ml: 1.39%

## Nc1ccn([C@@H]2O[C@H](CO)[C@@H](O)[C@@H]2O)c(=O)n1 [CYTARABINE]
[32]
  IC50: 950 nM
[7]
  inhibition of growth at 5 µg/mL: 63.1%
[12]
  inhibition of growth at 0.5 µg/mL: 24%
[14]
  inhibition at 72 h, 2.5 ug/ml: 18.8%
[16]
  inhibition at 72 h, 0.5 ug/ml: 13.3%
[18]
  inhibition of growth at 0.01 µg/mL: 13%
[20]
  inhibition of growth at 0.1 µg/mL: 16.1%
[22]
  inhibition at 72 h, 5 ug/ml: 25.4%
[26]
  inhibition of growth at 2.5 µg/mL: 44.5%
[27]
  inhibition at 72 h, 0.01 ug/ml: -1.76%
[29]
  inhibition at 72 h, 0.1 ug/ml: 3.02%
